Test results taken from US10648979B2, “Molecular probes for detecting gram-negative bacteria in vitro and in vivo” (priority 2014, dated 2020).
Entries after “also recorded” stand apart in the source; their conditions may differ. Bridge positions count the residues as written; N and C are the ends. Square brackets hold non-standard residues; d marks the D form. Peptide text beside a SMILES is read from it. * marks the point of attachment. ξ: configuration not given here. NBD = O=[N+]([O-])c1ccc(*)c2nonc12; dDab = NCC[C@@H](N)C(=O)O; Dab = NCC[C@H](N)C(=O)O; AEEA = NCCOCCOCC(=O)O; ξDab = NCCC(N)C(=O)O

Assays:
human neutrophils = assay: Labelling of isolated human neutrophils (confocal); assay type: cell-based
Procedure: (§1) All compounds have undergone biological assessment.
(§2) Bacteria were prepared and counterstained with Syto 82 nucleic acid stain (Invitrogen, Calif., USA) in a shaking heat block at 37° C. and 350 rpm for 20 minutes. They were co-incubated with the probe at required concentration in a sealed POC mini chamber, or 8 well confocal chamber. When required the glass coverslip for the POC chamber was coated in fibronectin (for neutrophil experiments) or poly-d-lysine (for bacteria and cell lines) and incubated with cells with one hour at 37° C. to allow adherence prior to bacterial innoculation. Analysis was with ImageJ. Briefly, the Syto channel was automatically thresholded (Huang) and an ROI generated from this. The mean fluorescence intensity on the probe channel within this ROI was quantified. Data presented represents the mean of three separate fields of view.

A549 cells = assay: Labelling of A549 cells (confocal); assay type: cell-based, human
Procedure: as §1
A549 cells were grown in Dulbecco's modified Eagle's medium (DMEM) supplemented with 10% fetal bovine serum (FBS), 2 mM L-glutamine, 100 units/mL penicillin G and 100 μg/mL streptomycin to 80% confluence. Cells were dispersed with Trypsin-EDTA and seeded onto glass coverslips or 8 well confocal imaging chambers and grown to confluence in the presence of DMEM.
as §2

Structure (SMILES): CC(C)C[C@@H]1NC(=O)[C@@H](Cc2ccccc2)NC(=O)[C@@H](CCN)NC(=O)C(NC(=O)[C@H](CCN)NC(=O)[C@@H](NC(=O)COCCOCCNc2ccc([N+](=O)[O-])c3nonc23)[C@@H](C)O)CCNC(=O)[C@@H]([C@H](C)O)NC(=O)[C@H](CCN)NC(=O)[C@H](CCN)NC1=O (some centres unmarked) [NBD-PMX] ({NBD-AEEA}-T[Dab][ξDab][dDab][dF]L[Dab][Dab][dT]; lactam 3-C)
- labelling of human neutrophils (human neutrophils): no labelling of human neutrophils or A549 cells
- labelling of A549 cells (A549 cells): retains selectivity of labeling over mammalian cells; also recorded: no labelling of human neutrophils or A549 cells
